The source made the active and inactive calls.
Tests used:
fMet-Leu-Phe receptor = fMet-Leu-Phe receptor (Homo sapiens, UniProt P21462); test: FPR ligands, dose response (AID 519); assay type: functional
BJ [1] = test: cytotoxicity toward Ras-transformed BJeLR fibroblasts, dose response, cell-based, alamar blue fluorescence, cherrypicked samples (AID 2631); assay type: functional; settings: Homo sapiens;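 also: confirmatory dose-response assay in RAS-dependent BJ fibroblasts engineered with TERT, LT and ST, with cytotoxicity read by fluorescence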
BJ [2] = test: cytotoxicity toward BJ-TERT fibroblasts, dose response, cell-based, RAS-independent, luminescence (AID 1933); assay type: functional; settings: Homo sapiens
BJ [3] = test: cells; assay type: functional, cell-based; settings: Homo sapiens
[4] = cytotoxicity toward DRD oncogenic fibroblasts, dose response, cell-based, non-viral oncogenic, luminescence (AID 1934); assay type: functional; settings: Homo sapiens
BJ [5] = test: cytotoxicity toward BJ-TERT-LT-ST fibroblasts, dose response, cell-based, RAS-independent, luminescence (AID 1935); assay type: functional; settings: Homo sapiens;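 also: BJ fibroblasts immortalized with TERT plus LT and ST oncogenes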
[6] = human group III sPLA2 inhibitors, dose response, biochemical, QFRET, IC50 (AID 743457);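 also: green fluorescence rise as the enzyme cleaves BODIPY PC-A2 in liposomes; potency for inhibition of the enzyme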
[7] = molecular target: T1, Low molecular weight phosphotyrosine protein phosphatase (Homo sapiens, UniProt P24666); assay type: functional; settings: read-out: IC50_Mean
T1 sequence (P24666 whole entry): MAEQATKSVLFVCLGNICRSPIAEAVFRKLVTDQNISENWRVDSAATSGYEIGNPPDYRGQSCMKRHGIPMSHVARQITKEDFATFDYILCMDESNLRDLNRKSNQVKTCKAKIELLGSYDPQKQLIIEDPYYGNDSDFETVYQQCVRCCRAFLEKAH

[8] = molecular target: T1, Low molecular weight phosphotyrosine protein phosphatase; assay type: functional; settings: read-out: IC50_Mean; remark: listed apart in the source
[9] = CEM21 lymphoblast cell cytotoxicity, dose response, cytotoxicity control for viral fusion inhibitor project, CellTiter-Glo luminescence, cherry-picked (AID 652042); assay type: functional, cell-based;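 also: potency for signal decrease meaning cytotoxicity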
[10] = inhibitors of HIV Env-driven cell fusion, dose response, cherry-pick (AID 652057); assay type: functional, cell-based
[11] = off-target signal loss in HeLa-CEM21 co-culture – HeLa F-luc CTL cells, cherry-picked, counter-screen for HIV-1 Env fusion inhibitor project, dose response (AID 652040); assay type: functional, cell-based;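 also: potency for signal decrease marking cytotoxic or nonspecific inhibition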
[12] = inhibitors of clade B AD8 Env fusion, dose response, cell-based, cherry-pick (AID 652062); assay type: functional;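 also: luciferase signal from cell-cell fusion driven by HIV-1 clade B AD8 Env; potency is for inhibitors of fusion seen as a drop in luminescence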
[13] = ZM109 Env clade C HIV-1 fusion inhibitors, dose response, HeLa effector, CEM target cells, luciferase, cherry-pick (AID 652058); assay type: functional, cell-based
cells [14] = assay type: functional, cell-based
cells [15] = assay type: functional, cell-based; remark: listed apart in the source
[16] = molecular target: T2, Oxysterols receptor LXR-beta (Homo sapiens, UniProt P55055); assay type: functional, cell-based;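 also: agonist activity at LXR measured by a cell-based luminescence readout across a dose range, run as a counterscreen for daf-12 agonists; HEK293 cells with Gal4-LXR fusion and GAL4-driven luciferase reporter; potency for activation of Gal4-LXR reporter so compounds are agonists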
T2 sequence (P55055 whole entry): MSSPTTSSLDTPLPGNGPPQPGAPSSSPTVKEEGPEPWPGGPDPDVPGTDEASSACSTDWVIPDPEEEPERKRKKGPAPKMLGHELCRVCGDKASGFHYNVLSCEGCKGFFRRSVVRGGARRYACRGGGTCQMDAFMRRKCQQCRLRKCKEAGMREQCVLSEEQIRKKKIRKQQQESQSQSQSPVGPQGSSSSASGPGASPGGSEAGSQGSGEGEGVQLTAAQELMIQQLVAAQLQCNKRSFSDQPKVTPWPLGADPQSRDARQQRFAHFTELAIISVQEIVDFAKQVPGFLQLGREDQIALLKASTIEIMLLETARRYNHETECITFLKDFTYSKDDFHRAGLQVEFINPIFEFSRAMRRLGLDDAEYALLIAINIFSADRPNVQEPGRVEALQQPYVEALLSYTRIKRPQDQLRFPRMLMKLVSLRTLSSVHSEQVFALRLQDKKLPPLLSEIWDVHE

[17] = molecular target: T3, Probable nicotinate-nucleotide adenylyltransferase (Staphylococcus aureus (strain N315), UniProt P65502); assay type: functional, Staphylococcus aureus subsp. aureus N315;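 as to IC50 Mean: confirmatory dose-response retesting of NadD inhibitor hits first found in an ultra-high-throughput screen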
Fatty acid synthase [18] = molecular target: T4, Fatty acid synthase (Homo sapiens, UniProt P49327); test: FAS thioesterase domain inhibitors, dose response, biochemical, endpoint fluorescence intensity, uHTS hits (AID 624327); assay type: functional;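 also: fluorescence from hydrolysis of an O-methyl fluorescein acyl ester substrate by the enzyme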
[19] = HEp-2 cell cytotoxicity, dose response, cytotoxicity control for RSV inhibitor project, HTS (AID 2410); assay type: functional; settings: human respiratory syncytial virus
[20] = molecular target: T3, Probable nicotinate-nucleotide adenylyltransferase; assay type: functional, Staphylococcus aureus subsp. aureus N315; settings: read-out: IC50_Mean
Fatty acid synthase [21] = molecular target: T4, Fatty acid synthase; test: FAS thioesterase domain inhibitors, dose response, biochemical, kinetic fluorescence intensity (AID 624326); assay type: functional;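 also: rate of fluorescence rise from hydrolysis of a fluorogenic O-methyl fluorescein ester substrate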

fMet-Leu-Phe receptor, sequence (P21462 whole entry): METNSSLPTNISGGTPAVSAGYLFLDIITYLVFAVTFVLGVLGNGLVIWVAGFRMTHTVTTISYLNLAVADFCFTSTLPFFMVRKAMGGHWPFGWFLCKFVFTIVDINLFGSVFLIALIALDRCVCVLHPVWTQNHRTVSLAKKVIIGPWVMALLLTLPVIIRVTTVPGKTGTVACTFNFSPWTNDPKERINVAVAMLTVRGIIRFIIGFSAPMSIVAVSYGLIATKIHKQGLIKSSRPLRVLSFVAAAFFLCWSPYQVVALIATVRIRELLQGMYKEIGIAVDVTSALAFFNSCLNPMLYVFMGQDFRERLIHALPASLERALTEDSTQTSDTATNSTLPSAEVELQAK
T4 sequence (P49327 whole entry, the tested form may be a part): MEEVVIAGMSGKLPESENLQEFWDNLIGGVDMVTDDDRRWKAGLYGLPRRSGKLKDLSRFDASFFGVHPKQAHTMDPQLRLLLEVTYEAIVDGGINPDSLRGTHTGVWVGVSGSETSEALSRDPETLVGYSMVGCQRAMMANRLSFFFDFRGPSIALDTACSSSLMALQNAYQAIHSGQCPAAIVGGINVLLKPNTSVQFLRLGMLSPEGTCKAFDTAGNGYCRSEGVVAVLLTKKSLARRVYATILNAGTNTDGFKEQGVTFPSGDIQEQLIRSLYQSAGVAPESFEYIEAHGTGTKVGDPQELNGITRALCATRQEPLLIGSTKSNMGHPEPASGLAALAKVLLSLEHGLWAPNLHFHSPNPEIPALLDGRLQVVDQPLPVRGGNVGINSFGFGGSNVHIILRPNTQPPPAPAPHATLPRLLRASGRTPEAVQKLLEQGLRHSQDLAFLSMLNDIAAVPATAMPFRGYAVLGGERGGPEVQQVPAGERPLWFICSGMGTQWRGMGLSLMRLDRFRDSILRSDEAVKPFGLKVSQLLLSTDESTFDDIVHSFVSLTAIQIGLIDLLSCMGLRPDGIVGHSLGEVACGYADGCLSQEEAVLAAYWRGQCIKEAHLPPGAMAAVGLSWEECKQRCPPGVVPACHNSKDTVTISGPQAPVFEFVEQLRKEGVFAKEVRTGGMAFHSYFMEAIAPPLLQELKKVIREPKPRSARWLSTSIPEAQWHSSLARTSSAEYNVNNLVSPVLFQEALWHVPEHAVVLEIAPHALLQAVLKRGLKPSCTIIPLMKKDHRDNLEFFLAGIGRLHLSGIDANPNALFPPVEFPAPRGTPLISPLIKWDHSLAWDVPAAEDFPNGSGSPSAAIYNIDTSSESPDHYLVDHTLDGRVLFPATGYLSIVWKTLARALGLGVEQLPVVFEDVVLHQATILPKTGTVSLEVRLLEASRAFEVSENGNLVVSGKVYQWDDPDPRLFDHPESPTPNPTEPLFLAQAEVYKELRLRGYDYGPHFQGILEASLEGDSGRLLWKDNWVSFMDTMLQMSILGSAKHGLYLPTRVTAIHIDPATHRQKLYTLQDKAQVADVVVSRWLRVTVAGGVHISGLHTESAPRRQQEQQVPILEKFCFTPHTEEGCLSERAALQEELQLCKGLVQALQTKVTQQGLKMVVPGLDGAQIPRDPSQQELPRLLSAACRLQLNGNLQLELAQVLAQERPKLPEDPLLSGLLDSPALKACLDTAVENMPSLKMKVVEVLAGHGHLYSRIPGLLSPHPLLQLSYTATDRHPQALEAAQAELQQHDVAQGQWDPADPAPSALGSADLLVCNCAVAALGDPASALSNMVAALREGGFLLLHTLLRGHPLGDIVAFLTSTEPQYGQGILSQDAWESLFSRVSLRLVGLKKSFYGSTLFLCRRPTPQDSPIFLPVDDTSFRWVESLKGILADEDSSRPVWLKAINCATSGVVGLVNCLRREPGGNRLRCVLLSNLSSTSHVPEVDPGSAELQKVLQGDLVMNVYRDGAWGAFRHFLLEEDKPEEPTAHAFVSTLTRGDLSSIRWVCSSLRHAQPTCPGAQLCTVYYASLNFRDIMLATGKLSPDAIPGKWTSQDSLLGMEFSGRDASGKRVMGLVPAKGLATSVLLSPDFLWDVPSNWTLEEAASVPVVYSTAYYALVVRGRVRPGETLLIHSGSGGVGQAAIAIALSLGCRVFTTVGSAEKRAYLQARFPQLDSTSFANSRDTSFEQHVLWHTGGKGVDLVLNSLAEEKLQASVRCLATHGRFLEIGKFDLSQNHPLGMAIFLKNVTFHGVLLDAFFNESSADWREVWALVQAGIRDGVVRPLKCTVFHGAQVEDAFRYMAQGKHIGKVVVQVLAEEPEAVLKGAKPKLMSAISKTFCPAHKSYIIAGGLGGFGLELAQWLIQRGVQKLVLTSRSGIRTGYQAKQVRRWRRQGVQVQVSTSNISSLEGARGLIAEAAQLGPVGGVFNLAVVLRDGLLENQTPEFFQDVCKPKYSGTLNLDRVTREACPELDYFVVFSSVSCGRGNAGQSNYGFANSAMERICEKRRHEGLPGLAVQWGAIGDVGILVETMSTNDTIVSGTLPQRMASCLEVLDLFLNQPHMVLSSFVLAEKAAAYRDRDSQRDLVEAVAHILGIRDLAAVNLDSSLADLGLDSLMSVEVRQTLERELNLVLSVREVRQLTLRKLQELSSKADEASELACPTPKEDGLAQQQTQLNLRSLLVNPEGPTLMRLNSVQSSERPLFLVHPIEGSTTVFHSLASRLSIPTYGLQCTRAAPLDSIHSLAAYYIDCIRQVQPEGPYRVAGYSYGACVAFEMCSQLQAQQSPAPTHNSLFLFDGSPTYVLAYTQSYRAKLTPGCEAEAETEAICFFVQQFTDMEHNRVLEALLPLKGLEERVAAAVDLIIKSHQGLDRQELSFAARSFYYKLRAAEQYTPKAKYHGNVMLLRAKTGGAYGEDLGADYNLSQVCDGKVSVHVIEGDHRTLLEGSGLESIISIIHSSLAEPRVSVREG
T3 sequence (P65502 whole entry, the tested form may be a part): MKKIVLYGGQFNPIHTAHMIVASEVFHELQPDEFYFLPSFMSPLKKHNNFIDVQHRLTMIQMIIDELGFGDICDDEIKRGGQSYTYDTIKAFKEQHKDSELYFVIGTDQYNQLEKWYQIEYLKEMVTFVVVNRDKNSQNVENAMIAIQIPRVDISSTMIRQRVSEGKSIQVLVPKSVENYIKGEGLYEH

With Cc1ccc(Nc2nc(C3CC3)cs2)cc1 as the compound, how does the Ki (fMet-Leu-Phe receptor) read?
Its Ki is 43.1 µM (inactive).

Which EC50 (BJ [1]) does the source give for CN1C/C(=C/c2ccncc2)C(=O)/C(=C/c2ccncc2)C1 here?
Its EC50 is 0.455 µM (active).

And the EC50 (BJ [2])?
Its EC50 is 3.82 µM (active).

What about the EC50 (BJ [3]) of the same compound?
The EC50 was 3.65 µM (inconclusive).

What about the EC50 [4] of the same compound?
Its EC50 is 7.52 µM (active).

And the EC50 (BJ [5])?
Its EC50 is 5.85 µM (inconclusive).

For Cc1c(C)c2cc(Cl)c(O)c(CN3CCCCC3)c2oc1=O, which Ki (fMet-Leu-Phe receptor) is on record?
The Ki was > 66.7 µM (inactive).

With O=C(NN=C(S)NCc1ccccc1)c1ccccc1OC(F)F as the compound, how does the IC50 [6] read?
Its IC50 is > 122 µM (inactive).

Which EC50 (BJ [1]) does the source give for Cc1c(C(=O)OCC(=O)N2CC(=O)Nc3ccccc32)oc2ccc(Br)cc12 here?
The EC50 was > 133 µM (inactive).

And the EC50 (BJ [2])?
The EC50 was 10.1 µM (active).

What about the EC50 (BJ [3]) of the same compound?
Its EC50 is 35.9 µM (active).

And the EC50 [4]?
The EC50 was 15.6 µM (active).

What about the EC50 (BJ [5]) of the same compound?
Its EC50 is > 150 µM (inconclusive).

For O=C1NC(=O)N(CCc2ccc(F)cc2)C(=O)/C1=C\NCc1ccc2c(c1)OCO2, which IC50 [7] is on record?
The IC50 was > 80 µM (inactive).

And the IC50 [8]?
The IC50 was 3.2 µM (active).

With CCOC(=O)Cn1nnnc1CN(CCc1ccccc1)Cc1cc2cc(CC)ccc2nc1O as the compound, how does the AC50 [9] read?
The AC50 was 54.2 µM (active).

What about the AC50 [10] of the same compound?
The AC50 was 2.97 µM (active).

What about the AC50 [11] of the same compound?
The AC50 was 6.05 µM (active).

And the AC50 [12]?
The AC50 was 29.3 µM (active).

What about the AC50 [13] of the same compound?
Its AC50 is 1.17 µM (active).

Which EC50 (cells [14]) does the source give for O=C(NCC1CCCO1)c1cc(-c2ccccc2F)no1 (stereo not drawn) here?
The EC50 was 190 µM (active).

What about the EC50 (cells [15]) of the same compound?
The EC50 was 43.8 µM (active).

What about the EC50 [16] of the same compound?
The EC50 was > 67.5 µM (inactive).

Which IC50 [17] does the source give for O=[N+]([O-])c1ccc(Cl)c(S(=O)(=O)Nc2cccc(-c3ccc(N4CCCC4)nn3)c2)c1 here?
The IC50 was 6.57 µM (active).

And the IC50 (Fatty acid synthase [18])?
The IC50 was 8.75 µM (active).

What about the CC50 [19] of the same compound?
The CC50 was 14.7 µM (active).

What about the IC50 [20] of the same compound?
Its IC50 is 23.5 µM (active).

What about the IC50 (Fatty acid synthase [21]) of the same compound?
The IC50 was 7.65 µM (active).
